Laboratory results: DBAASP
Values after ≈ are worked out from the molar mass of the structure shown.

What was measured:
Test in all cases: ≥ marks a high value that may be exact or a test limit, other limits are often not marked, values filed in µg/mL are converted to µM
[1] = tested on: Staphylococcus aureus ATCC 25923
[2] = tested on: Klebsiella pneumoniae ATCC 700603
[3] = tested on: Pseudomonas aeruginosa ATCC 9027
Acinetobacter baumannii = tested on: Acinetobacter baumannii
[4] = tested on: Escherichia coli ATCC 25922
Bacillus subtilis = tested on: Bacillus subtilis
Escherichia coli = tested on: Escherichia coli
[5] = tested on: Staphylococcus aureus ATCC 6538
Candida albicans = tested on: Candida albicans
Staphylococcus aureus = tested on: Staphylococcus aureus
Escherichia coli UB1005 = tested on: Escherichia coli UB1005
[6] = tested on: Salmonella enterica subsp. enterica serovar Typhimurium C77-31
[7] = tested on: Staphylococcus aureus ATCC 29213
[8] = tested on: Staphylococcus epidermidis ATCC 12228
[9] = tested on: Acinetobacter baumannii ATCC 19606
[10] = tested on: Bacillus subtilis ATCC 6633

Work on `CC(C)C[C@H](NC(=O)[C@H](CCCCN)NC(=O)[C@H](CC(C)C)NC(=O)[C@H](C)NC(=O)[C@H](CC(C)C)NC(=O)[C@H](CCCCN)NC(=O)[C@H](CCCCN)NC(=O)[C@H](CC(C)C)NC(=O)[C@H](CC(C)C)NC(=O)[C@H](CCCCN)NC(=O)[C@H](Cc1c[nH]c2ccccc12)NC(=O)[C@@H](NC(=O)[C@H](CC(C)C)NC(=O)[C@H](CCCCN)NC(=O)[C@@H](N)Cc1ccccc1)C(C)C)C(=O)O` [FKLVWKLLKKLALKL] yielded an MIC [1] of 32 µM (≈ 58.9 µg/mL), an MIC [2] of 64 µM (≈ 118 µg/mL) and an MIC [3] of over 64 µM. For the same compound, the MIC (Acinetobacter baumannii) was at least 64 µM and the MIC [4] was over 64 µM.

Work on `CC[C@H](C)[C@H](N)C(=O)N[C@@H](CC(N)=O)C(=O)N[C@@H](Cc1c[nH]c2ccccc12)C(=O)N[C@@H](CCCCN)C(=O)N[C@@H](CCCCN)C(=O)N[C@H](C(=O)N[C@@H](C)C(=O)N[C@@H](CO)C(=O)N[C@H](C(=O)NCC(=O)N[C@@H](CCCCN)C(=O)N[C@@H](CCC(=O)O)C(=O)N[C@H](C(N)=O)C(C)C)[C@@H](C)CC)[C@@H](C)CC` [INWKKIASIGKEV] yielded an MIC (Bacillus subtilis) of at least 100 µM and an MIC (Escherichia coli) of 100 µM (≈ 148 µg/mL).

Work on `CC(C)C[C@H](NC(=O)[C@H](CC(C)C)NC(=O)[C@H](CCCCN)NC(=O)[C@H](CCCCN)NC(=O)[C@H](C)NC(=O)[C@H](CC(C)C)NC(=O)[C@H](CC(C)C)NC(=O)[C@H](CCCCN)NC(=O)[C@H](C)NC(=O)[C@@H](N)Cc1ccccc1)C(N)=O` [FAKLLAKKLL] yielded an MIC [5] of 87.4 µM (≈ 99.9 µg/mL) and an MIC [3] of 175 µM (≈ 200 µg/mL).

Work on `CC[C@H](C)[C@H](NC(=O)CN)C(=O)N[C@@H](Cc1ccccc1)C(=O)NCC(=O)N[C@@H](CCCCN)C(=O)N[C@H](C(=O)N[C@@H](CC(C)C)C(=O)NCC(=O)N[C@H](C(=O)NCC(=O)N[C@@H](CCCCN)C(=O)N[C@@H](CCCCN)C(=O)N[C@H](C(=O)N[C@@H](CC(C)C)C(=O)N[C@H]1CSSC[C@@H](C(=O)O)NC(=O)[C@H](C(C)C)NC(=O)CNC(=O)[C@H](CO)NC(=O)[C@H](CC(C)C)NC(=O)CNC1=O)C(C)C)C(C)C)[C@@H](C)CC` [GIFGKILGVGKKVLCGLSGVC] yielded an MIC (Bacillus subtilis) of 2.88 µM (≈ 5.89 µg/mL), an MIC (Candida albicans) of 5.76 µM (≈ 11.8 µg/mL) and an MIC (Escherichia coli) of 11.5 µM (≈ 23.6 µg/mL). The MIC (Staphylococcus aureus) was 2.88 µM (≈ 5.89 µg/mL).

`CC[C@H](C)[C@H](NC(=O)[C@H](C)NC(=O)[C@H](CCCCN)NC(=O)[C@H](CC(C)C)NC(=O)[C@@H](NC(=O)[C@H](CCCCN)NC(=O)CNC(=O)[C@@H](NC(=O)[C@H](CCCCN)NC(=O)[C@H](CCCCN)NC(=O)[C@H](CC(C)C)NC(=O)[C@H](CCCN=C(N)N)NC(=O)[C@H](CCCCN)NC(=O)[C@H](CCCN=C(N)N)NC(=O)[C@@H](NC(=O)[C@H](CCCCN)NC(=O)[C@H](CCCCN)NC(=O)[C@H](CCCN=C(N)N)NC(=O)[C@H](CC(C)C)NC(=O)[C@H](CCCN=C(N)N)NC(=O)[C@H](CCCN=C(N)N)NC(=O)[C@H](Cc1ccccc1)NC(=O)[C@H](CCCN=C(N)N)NC(=O)CN)[C@@H](C)O)[C@@H](C)CC)C(C)C)C(N)=O` [GRFRRLRKKTRKRLKKIGKVLKAI] gave an MIC (Escherichia coli UB1005) of 16 µM (≈ 47.2 µg/mL), an MIC [6] of at least 128 µM and an MIC [1] of 128 µM (≈ 378 µg/mL). For the same compound, the MIC [7] was 128 µM (≈ 378 µg/mL), the MIC [8] was 128 µM (≈ 378 µg/mL) and the MIC [4] was 16 µM (≈ 47.2 µg/mL).

`CC(C)C[C@H](NC(=O)[C@H](CCCCN)NC(=O)[C@H](C)NC(=O)[C@H](CCCCN)NC(=O)[C@H](C)NC(=O)[C@H](CC(C)C)NC(=O)[C@H](CCCCN)NC(=O)[C@H](C)NC(=O)[C@H](CC(C)C)NC(=O)[C@H](CC(C)C)NC(=O)[C@H](CCCCN)NC(=O)[C@H](C)NC(=O)[C@@H](N)Cc1ccccc1)C(N)=O` [FAKLLAKLAKAKL] was tested, and the MIC [5] was 10.6 µM (≈ 15 µg/mL) and the MIC [3] was 35.3 µM (≈ 50 µg/mL).

`CC(C)C[C@H](NC(=O)[C@H](CC(C)C)NC(=O)[C@H](CCCCN)NC(=O)[C@H](CCCCN)NC(=O)[C@H](C)NC(=O)[C@H](CC(C)C)NC(=O)[C@H](CCCCN)NC(=O)[C@H](CCCCN)NC(=O)[C@H](C)NC(=O)[C@@H](N)Cc1ccccc1)C(N)=O` [FAKKLAKKLL] showed an MIC [5] of over 172 µM and an MIC [3] of over 172 µM.

For `CC[C@H](C)[C@H](NC(=O)[C@H](CCCNC(=N)N)NC(=O)[C@@H](NC(=O)[C@@H](NC(=O)[C@@H]1CCCN1C(=O)[C@@H](NC(=O)[C@@H](NC(=O)[C@@H](NC(=O)[C@@H]1CCCN1C(=O)CNC(=O)[C@H](Cc1ccc(O)cc1)NC(=O)[C@H](CCCCN)NC(=O)[C@H](CCCCN)NC(=O)[C@H](Cc1c[nH]c2ccccc12)NC(=O)[C@H](C)NC(=O)[C@H](CCCNC(=N)N)NC(=O)[C@H](CC(C)C)NC(=O)[C@@H](NC(=O)[C@H](CCCCN)NC(=O)[C@H](CCCNC(=N)N)NC(=O)CNC(=O)[C@H](CC(C)C)NC(=O)[C@H](CO)NC(=O)[C@H](CCCNC(=N)N)NC(=O)[C@H](CC(C)C)NC(=O)CNC(=O)CN)[C@@H](C)CC)[C@@H](C)CC)[C@@H](C)CC)C(C)C)[C@@H](C)CC)[C@@H](C)CC)C(N)=O` [GGLRSLGRKILRAWKKYGPIIVPIIRI], the MIC [9] was 1.63 µM (≈ 5 µg/mL) and the MIC (Acinetobacter baumannii) was 2.3 µM (≈ 7.07 µg/mL).

`CC(C)C[C@H](NC(=O)[C@H](CCCCN)NC(=O)[C@H](C)NC(=O)[C@H](CC(C)C)NC(=O)[C@H](CC(C)C)NC(=O)[C@H](CCCCN)NC(=O)[C@H](C)NC(=O)[C@@H](N)Cc1ccccc1)C(=O)N[C@@H](C)C(=O)N[C@@H](CCCCN)C(=O)N[C@@H](C)C(=O)N[C@@H](CCCCN)C(=O)NCC(N)=O` [FAKLLAKLAKAKG] showed an MIC [5] of over 147 µM and an MIC [3] of over 147 µM.

Work on `CC(C)C[C@H](NC(=O)[C@H](C)NC(=O)[C@H](Cc1ccccc1)NC(=O)[C@H](CCCCN)NC(=O)[C@H](CCCCN)NC(=O)[C@H](C)NC(=O)[C@H](CC(C)C)NC(=O)[C@H](CCCCN)NC(=O)[C@H](C)NC(=O)[C@H](Cc1ccccc1)NC(=O)[C@H](CC(C)C)NC(=O)[C@H](CCCCN)NC(=O)[C@H](C)NC(=O)[C@@H](N)Cc1ccccc1)C(N)=O` [FAKLFAKLAKKFAL] yielded an MIC [5] of 31.3 µM (≈ 50 µg/mL) and an MIC [3] of over 125 µM.

`CC(C)C[C@H](NC(=O)[C@@H]1CSSC[C@H](NC(=O)CNC(=O)[C@H](CCCN=C(N)N)NC(=O)[C@H](Cc2ccccc2)NC(=O)[C@H](C)NC(=O)[C@H](C)N)C(=O)N[C@@H](Cc2c[nH]c3ccccc23)C(=O)N[C@@H]([C@@H](C)O)C(=O)N[C@@H](CCCCN)C(=O)N[C@@H](CC(N)=O)C(=O)N[C@@H](Cc2ccc(O)cc2)C(=O)N[C@@H](CO)C(=O)N2CCC[C@H]2C(=O)N[C@@H](CCCCN)C(=O)N2CCC[C@H]2C(=O)N1)C(=O)O` [AAFRGCWTKNYSPKPCL] showed an MIC [1] of 51.5 µM (≈ 99.9 µg/mL) and an MIC [10] of 25.8 µM (≈ 50.1 µg/mL).

`CC(C)C[C@H](NC(=O)[C@H](CCC(=O)O)NC(=O)[C@H](CC(C)C)NC(=O)[C@H](CO)NC(=O)[C@H](CC(=O)O)NC(=O)[C@H](Cc1ccc(O)cc1)NC(=O)[C@H](CCCN=C(N)N)NC(=O)[C@H](Cc1ccc(O)cc1)NC(=O)CNC(=O)[C@H](Cc1ccccc1)NC(=O)[C@H](CCCCN)NC(=O)[C@H](CCCCN)NC(=O)[C@H](Cc1ccc(O)cc1)NC(=O)[C@H](CC(=O)O)NC(=O)[C@H](Cc1ccccc1)NC(=O)[C@@H](NC(=O)[C@@H](N)CC(=O)O)[C@@H](C)O)C(=O)N[C@@H](CCC(=O)O)C(=O)NCC(=O)N[C@@H](CCCN=C(N)N)C(=O)O` [DTFDYKKFGYRYDSLELEGR] was tested, and the MIC (Bacillus subtilis) was 0.548 µM (≈ 1.37 µg/mL).

`CC(C)C[C@H](NC(=O)[C@@H](N)Cc1ccccc1)C(=O)N1CCC[C@H]1C(=O)N1CCC[C@H]1C(=O)N[C@@H](CO)C(=O)N1CCC[C@H]1C(=O)N[C@@H](Cc1c[nH]c2ccccc12)C(=O)N[C@@H](CCCCN)C(=O)N[C@@H](CCC(=O)O)C(=O)N[C@H](C(=O)N[C@@H](Cc1ccccc1)C(=O)N[C@@H](CCCN=C(N)N)C(=O)N[C@H](C(=O)N[C@@H](CO)C(=O)O)[C@@H](C)O)[C@@H](C)O` [FLPPSPWKETFRTS] gave an MIC (Bacillus subtilis) of at least 50.2 µM, an MIC (Candida albicans) of 12.6 µM (≈ 21.3 µg/mL) and an MIC (Escherichia coli) of 25.1 µM (≈ 42.5 µg/mL). The MIC (Staphylococcus aureus) was 12.6 µM (≈ 21.3 µg/mL).

With `CC[C@H](C)[C@H](NC(=O)[C@H](CCCCN)NC(=O)[C@H](CCCCN)NC(=O)[C@@H](NC(=O)[C@H](CC(C)C)NC(=O)[C@H](CC(C)C)NC(=O)[C@H](CCCCN)NC(=O)CN)C(C)C)C(=O)N[C@H](C(=O)N[C@@H](CO)C(=O)N[C@@H](CC(C)C)C(=O)N[C@H](C(=O)N[C@@H](CCCN=C(N)N)C(=O)N[C@@H](CO)C(=O)N[C@@H](C)C(N)=O)C(C)C)C(C)C` [GKLLVKKIVSLVRSA] the MIC [1] was over 25 µM, the MIC [2] was over 25 µM and the MIC [3] was over 25 µM. The MIC (Acinetobacter baumannii) was 25 µM (≈ 40.3 µg/mL) and the MIC [4] was over 25 µM.

For `CC(C)C[C@H](NC(=O)[C@H](CC(C)C)NC(=O)[C@H](CCCCN)NC(=O)[C@H](CCCCN)NC(=O)[C@H](C)NC(=O)[C@H](CC(C)C)NC(=O)[C@H](CCCCN)NC(=O)[C@H](C)NC(=O)[C@H](CC(C)C)NC(=O)[C@H](CC(C)C)NC(=O)[C@H](CCCCN)NC(=O)[C@H](C)NC(=O)[C@@H](N)C(C)C)C(N)=O` [VAKLLAKLAKKLL], the MIC [5] was 3.55 µM (≈ 5 µg/mL) and the MIC [3] was 3.55 µM (≈ 5 µg/mL).
